In patent US4173647A, “4-Spectinomycylamine and salts thereof” (Boehringer Ingelheim GmbH, priority 1977, dated 1979):
Converted amounts (≈) assume the structure as drawn.

Assays:
Proteus mirabilis = assay: series-dilution assay in the microtiter system, bacteriostasis; assay type: cell-based; conditions: 18 to 20 hours at 37° C., pH 6.7, lowest still bacteriostatically effective concentration, read-out: Minimum inhibiting concentration
Description: (§1) 4-R-Spectinomycylamine of the formula I was tested in comparison with the known antibiotic spectinomycin with regard to its effectiveness against Staphylococcus aureus SG 511, Streptococcus aronson, Escherichia coli ATCC 9637, Pseudomonas aeruginosa, Serratia marcescens ATCC 13 880, Klebsiella pneumoniae ATCC 10 031, Proteus mirabilis and Proteus vulgaris, and with regard to acute toxicity.
(§2) For these tests the method of the series-dilution essay in the microtiter system was used. The substances were tested in a fluid medium with regard to bacteriostasis. The effectiveness of the bacteriostasis was tested at the following concentrations: 80, 40, 20, 10, 5, 2.5, 1.25, 0.6 and 0.3 μgm/ml. A bouillon consisting of 5 gm of peptone, 3 gm of meat extract, filled up to a volume of 1000 ml with distilled water served as nutriant; pH-value 6.7. The age of the primary cultures was 24 hours. The adjustment of the microorganism suspension was carried out with a photometer (according to Eppendorf) (diameter of the test tube 14 mm, filter 546 nm) by comparison with the turbidity of a barium sulfate comparison suspension produced by a suspension of barium sulfate which was prepared by addition of 3.0 ml of 1% barium chloride solution on 97 ml of 1% sulfuric acid. After the adjustment streptococcus aronson was diluted 1:150 and the remaining test microorganisms were further diluted with sodium chloride solution in the proportion of 1:1500.
(§3) 16 mgm of the test substance was weighed in 10 ml measuring flasks and filled up with the solvent until the mark was reached. The further dilution series was prepared with distilled water or with the respective solvent.
(§4) 0.2 ml of nutrient medium, 0.01 ml of the corresponding test substance dilution and 1 drop of the microorganism suspension were placed into the cavities of the microtiter plates and incubated for 18 to 20 hours at 37° C. A solvent control batch was always treated in like manner at the same time.
(§5) The reading was effected macroscopically, whereby the respective threshold concentration (=lowest still bacteriostatically effective concentration) was determined.

[1] = system: Serratia marcescens ATCC 13 880; assay: as above; assay type: cell-based; conditions: ATCC13, pH 6.7, read-out: Minimum inhibiting concentration
Description: as §1, §2, §3, §4, §5

Proteus vulgaris = assay: as above; assay type: cell-based; conditions: 18 to 20 hours at 37° C., pH 6.7, lowest still bacteriostatically effective concentration, read-out: Minimum inhibiting concentration
Description: as §1, §2, §3, §4, §5

[2] = system: Staphylococcus aureus SG 511; assay: as above; assay type: cell-based; conditions: SG511, 18 to 20 hours at 37° C., pH 6.7, lowest still bacteriostatically effective concentration, read-out: Minimum inhibiting concentration
Description: as §1, §2, §3, §4, §5

Pseudomonas aeruginosa = assay: as above; assay type: cell-based; conditions: pH 6.7, read-out: Minimum inhibiting concentration
Description: as §1, §2, §3, §4, §5

[3] = system: Klebsiella pneumoniae ATCC 10 031; assay: as above; assay type: cell-based; conditions: ATCC10, 18 to 20 hours at 37° C., pH 6.7, lowest still bacteriostatically effective concentration, read-out: Minimum inhibiting concentration
Description: as §1, §2, §3, §4, §5

[4] = system: Escherichia coli ATCC 9637; assay: as above; assay type: cell-based; conditions: ATCC9637, pH 6.7, read-out: Minimum inhibiting concentration
Description: as §1, §2, §3, §4, §5

Streptococcus aronson = assay: as above; assay type: cell-based; conditions: 18 to 20 hours at 37° C., pH 6.7, lowest still bacteriostatically effective concentration, read-out: Minimum inhibiting concentration
Description: as §1, §2, §3, §4, §5

[5] = antimicrobial activity (general statement, in vitro and in warm-blooded animals such as mice)

SMILES | MIC (Proteus mirabilis) [µg/mL] | MIC [1] [µg/mL] | MIC (Proteus vulgaris) [µg/mL] | MIC [2] [µg/mL] | MIC (Pseudomonas aeruginosa) [µg/mL] | MIC [3] [µg/mL] | MIC [4] [µg/mL] | MIC (Streptococcus aronson) [µg/mL] | antimicrobial properties (in words) [5]
CNC1C(O)C(NC)C2OC3(O)C(N)CC(C)OC3OC2C1O (centres unmarked) [4-R-Spectinomycylamine] | 10 (≈ 30 µM) | 10 (≈ 30 µM) | 5 (≈ 15 µM) | 5 (≈ 15 µM) | 40 (≈ 120 µM) | 10 (≈ 30 µM) | 20 (≈ 60 µM) | 5 (≈ 15 µM) | especially pronounced
CN[C@@H]1[C@H](O)[C@H](NC)[C@H]2O[C@@]3(O)C(=O)C[C@@H](C)O[C@H]3O[C@@H]2[C@H]1O [Spectinomycin, spectinomycin, reference compound] | 10 (≈ 30.1 µM) | 20 (≈ 60.2 µM) | 10 (≈ 30.1 µM) | 20 (≈ 60.2 µM) | 160 (≈ 481 µM) | 20 (≈ 60.2 µM) | 40 (≈ 120 µM) | 10 (≈ 30.1 µM) | 
